From ChEMBL document CHEMBL4732042, “Studies on the affinity of 6-[(n-(cyclo)aminoalkyl)oxy]-4H-chromen-4-ones for sigma 1/2 receptors” (RSC Med Chem, 2021)
pIC50, pKi: −log10 of the molar value.

Experiments:
[1] = molecular target: T1, Sigma intracellular receptor 2 (Rattus norvegicus, UniProt Q5U3Y7); experiment: Displacement of (+)-[3H]DTG from sigma 2 receptor in SPRD rat liver membrane incubated for 2 hrs by liquid scintillation counting method; format: cell membranes
T1 sequence (Q5U3Y7 whole entry): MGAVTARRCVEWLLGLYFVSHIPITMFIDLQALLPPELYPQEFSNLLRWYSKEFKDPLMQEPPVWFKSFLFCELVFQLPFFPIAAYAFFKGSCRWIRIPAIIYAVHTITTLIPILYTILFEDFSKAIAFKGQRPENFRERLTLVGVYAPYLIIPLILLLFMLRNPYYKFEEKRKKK

[2] = molecular target: Sigma non-opioid intracellular receptor 1 (Homo sapiens, UniProt Q99720); experiment: Displacement of [3H]pentazocine from human sigma 1 receptor expressed in HEK293 cell membrane incubated for 2 hrs by liquid scintillation counting method; format: cell membranes
Sigma non-opioid intracellular receptor 1, sequence (Q99720 whole entry): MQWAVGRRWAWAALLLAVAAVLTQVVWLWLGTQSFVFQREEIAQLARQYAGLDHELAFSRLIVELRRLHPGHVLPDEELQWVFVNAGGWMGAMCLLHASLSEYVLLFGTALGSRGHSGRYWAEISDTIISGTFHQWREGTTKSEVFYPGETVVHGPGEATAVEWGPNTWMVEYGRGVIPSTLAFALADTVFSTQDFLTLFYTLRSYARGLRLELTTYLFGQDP

[3] = molecular target: T2, MAO-B (amine oxidase [flavin-containing] B) (Homo sapiens, UniProt P27338); experiment: Inhibition of human MAO-B assessed as residual activity at 10 uM; conditions: read-out: Activity
T2 sequence (P27338 whole entry): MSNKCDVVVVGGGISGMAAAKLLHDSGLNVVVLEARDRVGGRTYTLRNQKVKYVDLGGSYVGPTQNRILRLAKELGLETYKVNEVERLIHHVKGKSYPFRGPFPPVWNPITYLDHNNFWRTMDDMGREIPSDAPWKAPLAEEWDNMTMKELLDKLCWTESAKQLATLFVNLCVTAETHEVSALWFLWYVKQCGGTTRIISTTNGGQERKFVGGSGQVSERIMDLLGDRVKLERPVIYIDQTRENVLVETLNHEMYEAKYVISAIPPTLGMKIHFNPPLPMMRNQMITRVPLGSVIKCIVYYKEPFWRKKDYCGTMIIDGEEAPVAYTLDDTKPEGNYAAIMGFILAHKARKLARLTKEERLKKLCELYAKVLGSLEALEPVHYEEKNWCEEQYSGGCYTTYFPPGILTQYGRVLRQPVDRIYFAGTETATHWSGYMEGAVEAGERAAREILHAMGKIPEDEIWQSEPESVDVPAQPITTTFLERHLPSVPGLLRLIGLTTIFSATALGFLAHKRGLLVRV

[4] = molecular target: Acetylcholinesterase (Homo sapiens, UniProt P22303); experiment: Inhibition of human AChE
Acetylcholinesterase, sequence (P22303 whole entry): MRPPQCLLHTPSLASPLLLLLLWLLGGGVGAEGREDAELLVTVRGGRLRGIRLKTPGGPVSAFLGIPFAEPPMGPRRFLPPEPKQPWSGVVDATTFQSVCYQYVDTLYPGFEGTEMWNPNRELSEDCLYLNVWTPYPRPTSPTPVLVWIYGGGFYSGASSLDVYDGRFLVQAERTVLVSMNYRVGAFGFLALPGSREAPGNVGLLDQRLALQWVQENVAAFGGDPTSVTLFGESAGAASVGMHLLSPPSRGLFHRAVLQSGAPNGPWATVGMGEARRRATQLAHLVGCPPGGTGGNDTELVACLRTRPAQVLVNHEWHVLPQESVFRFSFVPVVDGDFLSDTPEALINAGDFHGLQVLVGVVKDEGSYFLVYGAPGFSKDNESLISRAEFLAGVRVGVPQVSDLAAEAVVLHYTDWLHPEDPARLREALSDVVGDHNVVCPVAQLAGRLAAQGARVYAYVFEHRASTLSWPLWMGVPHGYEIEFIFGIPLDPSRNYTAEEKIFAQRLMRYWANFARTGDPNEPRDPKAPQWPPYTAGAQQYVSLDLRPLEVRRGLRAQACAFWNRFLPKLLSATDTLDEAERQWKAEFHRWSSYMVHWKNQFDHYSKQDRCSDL

[5] = molecular target: Cholinesterase (Homo sapiens, UniProt P06276); experiment: Inhibition of human BuChE
Cholinesterase, sequence (P06276 whole entry): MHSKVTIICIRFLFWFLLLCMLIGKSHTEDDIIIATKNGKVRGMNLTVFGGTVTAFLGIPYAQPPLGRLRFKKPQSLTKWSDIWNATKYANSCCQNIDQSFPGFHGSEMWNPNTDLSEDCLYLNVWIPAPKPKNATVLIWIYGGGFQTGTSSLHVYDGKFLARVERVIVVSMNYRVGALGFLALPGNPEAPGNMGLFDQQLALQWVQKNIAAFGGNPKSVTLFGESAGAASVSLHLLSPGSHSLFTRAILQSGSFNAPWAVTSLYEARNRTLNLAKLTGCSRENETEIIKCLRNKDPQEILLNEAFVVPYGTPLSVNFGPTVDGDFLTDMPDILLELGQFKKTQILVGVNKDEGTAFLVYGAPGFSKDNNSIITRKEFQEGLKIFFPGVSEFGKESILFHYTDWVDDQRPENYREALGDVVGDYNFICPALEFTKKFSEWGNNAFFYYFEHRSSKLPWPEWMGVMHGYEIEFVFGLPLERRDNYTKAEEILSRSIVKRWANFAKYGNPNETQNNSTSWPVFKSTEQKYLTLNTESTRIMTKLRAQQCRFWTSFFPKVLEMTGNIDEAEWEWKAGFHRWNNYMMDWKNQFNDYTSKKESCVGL

[6] = molecular target: T3, Amine oxidase [flavin-containing] B (Homo sapiens, UniProt P27338); experiment: Inhibition of human MAO-B; conditions: for pIC50: read-out: IC50
T3 sequence (P27338 whole entry): T2 sequence (P27338 whole entry)

Row | Structure (SMILES) | pKi [1] | pKi [2] | other results
1 | O=c1ccoc2ccc(OCCN3CCOCC3)cc12 | < 5.00 | – | –
2 | CN1CCN(CCCCCOc2ccc3occc(=O)c3c2)CC1 | 5.39 | 7.08 | –
3 | O=c1ccoc2ccc(OCCCCN3CCOCC3)cc12 | 4.84 | 7.62 | –
4 | O=c1ccoc2ccc(OCCCN3CCCCCC3)cc12 | 6.12 | 7.57 | activity at 10 µM [3]: 54%
5 | CN1CCN(CCCOc2ccc3occc(=O)c3c2)CC1 | 4.77 | 6.09 | –
6 | O=c1ccoc2ccc(OCCCN3CCCC3)cc12 | 4.62 | 6.30 | –
7 | CCN(CC)CCCCCOc1ccc2occc(=O)c2c1 | 5.60 | 6.66 | –
8 | O=c1ccoc2ccc(OCCCCN3CCCCC3)cc12 | 5.71 | 6.51 | pIC50 [4]: 5.25; pIC50 [5]: 4.06; pIC50 [6]: 5.14
9 | O=c1ccoc2ccc(OCCCN3CCCCC3)cc12 | 5.54 | 7.18 | IC50 [6]: Not Active
10 | O=c1ccoc2ccc(OCCN3CCCC3)cc12 | 4.90 | 5.54 | –
11 | O=c1ccoc2ccc(OCCCCCN3CCCC3)cc12 | 5.84 | 7.06 | IC50 [6]: Not Active
12 | CN1CCN(CCOc2ccc3occc(=O)c3c2)CC1 | 4.85 | 6.22 | –
13 | O=c1ccoc2ccc(OCCCN3CCOCC3)cc12 | 4.65 | 6.61 | pIC50 [6]: 5.93
14 | O=c1ccoc2ccc(OCCCCCN3CCCCC3)cc12 | 6.31 | 6.67 | –
15 | O=c1ccoc2ccc(OCCCCN3CCCC3)cc12 | 5.51 | 6.64 | –
16 | O=c1ccoc2ccc(OCCCCCN3CCOCC3)cc12 | 5.58 | 7.71 | pIC50 [5]: < 4.00; activity at 10 µM [3]: 58%
17 | C[C@@H]1CCCN1CCCCCOc1ccc2occc(=O)c2c1 | 6.23 | 6.87 | –
18 | O=c1ccoc2ccc(OCCN3CCCCCC3)cc12 | 5.79 | 6.95 | –
19 | O=c1ccoc2ccc(OCCN3CCCCC3)cc12 | 5.04 | 6.08 | –
20 | CCN(CC)CCOc1ccc2occc(=O)c2c1 | 4.52 | 4.92 | –
21 | CCN(CC)CCCOc1ccc2occc(=O)c2c1 | 5.08 | 5.91 | –
22 | C[C@@H]1CCCN1CCCCOc1ccc2occc(=O)c2c1 | 5.96 | 6.98 | –
